Results reported in BindingDB's records for doi:10.7270/Q25D8Q92 (Burnham Center For Chemical Genomics, 2011).

Target: T1, Bcl-2-related protein A1 (Mus musculus, UniProt Q07440)
T1 sequence (Q07440 whole entry): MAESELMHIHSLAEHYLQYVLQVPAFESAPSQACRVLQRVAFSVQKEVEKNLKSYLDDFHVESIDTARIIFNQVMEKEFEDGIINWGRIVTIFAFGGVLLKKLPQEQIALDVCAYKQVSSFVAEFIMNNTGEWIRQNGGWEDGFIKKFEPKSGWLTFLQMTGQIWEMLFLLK
Assay: Bfl-1 inhibitors in counterscreen, dose response, biochemical (AID 504689)

Row | IC50 | SMILES
1 | > 20 µM | C#CCOCCOCCOCCNc1nc(N2CCN(C(=O)CCCCCCCCCCNC(=O)[C@@H](CCC(=O)O)n3cc(CCCCCN)nn3)CC2)nc(N2CCN(C(=O)CCCCCCCCCCNC(=O)[C@H]([C@@H](C)CC)n3cc(CCCCCN)nn3)CC2)n1 [KI-KE]
2 | 19.7 µM | C#CCOCCOCCOCCNc1nc(N2CCN(C(=O)[C@H](Cc3cc4ccccc4[nH]3)n3cc([C@@H](N)CC(C)C)nn3)CC2)nc(N2CCN(C(=O)[C@H](Cc3cc4ccccc4[nH]3)n3cc([C@@H](N)CC(C)C)nn3)CC2)n1 [LW-LW]
3 | > 20 µM | CCOC(=O)c1c(C)c2c(n1C)CCCC2N=O (stereo not drawn) [MLS000026784]
4 | > 20 µM | C#CCOCCOCCOCCNc1nc(N2CCN(C(=O)[C@H](CCCCN)n3cc([C@@H](N)C(C)CC)nn3)CC2)nc(N2CCN(C(=O)[C@H](Cc3cc4ccccc4[nH]3)n3cc([C@@H](N)C(C)CC)nn3)CC2)n1 (stereo partly drawn) [MLS000562580]
5 | > 20 µM | C#CCOCCOCCOCCNc1nc(N2CCN(C(=O)[C@H](Cc3cc4ccccc4[nH]3)n3cc([C@@H](N)C(C)CC)nn3)CC2)nc(N2CCN(C(=O)[C@H](CCCCN)n3cc([C@@H](N)CC(C)C)nn3)CC2)n1 (stereo partly drawn) [MLS000562581]
6 | > 20 µM | COCCNC(=S)NNC1=c2cc(C)cc(C)c2=NC1=O [MLS000774564]
7 | > 20 µM | COc1cc2c3c(c1)/C(=N/NC(N)=S)C(=O)N3C(C)(C)C=C2C [MLS000807018]
8 | > 20 µM | CCOC(=O)C1C(COC(=O)c2cc(OC)c(OC)c(OC)c2)=NC(=O)NC1C (stereo not drawn) [MLS001161811]
9 | 10.1 µM | C#CCOCCOCCOCCNc1nc(N2CCN(C(=O)CCCCCCCCCCNC(=O)Cn3cc(C[C@@H](C)O)nn3)CC2)nc(N2CCN(C(=O)CCCCCCCCCCNC(=O)[C@H](CCCN=C(N)N)n3cc(C[C@@H](C)CC)nn3)CC2)n1 [MLS002153601]
10 | > 20 µM | C#CCOCCOCCOCCNc1nc(N2CCN(C(=O)CCCCCCCCCCNC(=O)[C@H](CCCCN)n3cc(CCO)nn3)CC2)nc(N2CCN(C(=O)CCCCCCCCCCNC(=O)[C@H](CCCCN)n3cc(CCCC(=O)O)nn3)CC2)n1 [MLS002153608]
11 | 6.58 µM | C#CCOCCOCCOCCNc1nc(N2CCN(C(=O)CCCCCCCCCCNC(=O)[C@H](CCCCN)n3cc(C)nn3)CC2)nc(N2CCN(C(=O)CCCCCCCCCCNC(=O)[C@H](CCCN=C(N)N)n3cc(C[C@@H](C)CC)nn3)CC2)n1 [MLS002153614]
12 | > 20 µM | C#CCOCCOCCOCCNc1nc(N2CCN(C(=O)CCCCCCCCCCNC(=O)[C@H](CCCCN)n3cc(CCO)nn3)CC2)nc(N2CCN(C(=O)CCCCCCCCCCNC(=O)[C@H](CCCCN)n3cc(CCO)nn3)CC2)n1 [MLS002153615]
13 | 8.02 µM | C#CCOCCOCCOCCNc1nc(N2CCN(C(=O)CCCCCCCCCCNC(=O)[C@H](CCCCN)n3cc(C)nn3)CC2)nc(N2CCN(C(=O)CCCCCCCCCCNC(=O)[C@@H]([C@H](C)CC)n3cc(CCCCCN)nn3)CC2)n1 [MLS002153655]
14 | 11.8 µM | C#CCOCCOCCOCCNc1nc(N2CCN(C(=O)CCCCCCCCCCNC(=O)Cn3cc(CCCCCN)nn3)CC2)nc(N2CCN(C(=O)CCCCCCCCCCNC(=O)[C@H](CO)n3cc(CCCSC)nn3)CC2)n1 [MLS002153667]
15 | > 20 µM | C#CCOCCOCCOCCNc1nc(N2CCN(C(=O)CCCCCCCCCCNC(=O)[C@H](CCCCN)n3cc(CCO)nn3)CC2)nc(N2CCN(C(=O)CCCCCCCCCCNC(=O)[C@@H]([C@H](C)O)n3cc(C)nn3)CC2)n1 [MLS002153685]
16 | > 20 µM | C#CCOCCOCCOCCNc1nc(N2CCN(C(=O)CCCCCCCCCCNC(=O)Cn3cc(CCCCCN)nn3)CC2)nc(N2CCN(C(=O)CCCCCCCCCCNC(=O)[C@H]([C@@H](C)CC)n3cc(CCCCCN)nn3)CC2)n1 [MLS002153714]
17 | 6.1 µM | C#CCOCCOCCOCCNc1nc(N2CCN(C(=O)CCCCCCCCCCNC(=O)[C@H]([C@@H](C)CC)n3cc(CCCCCN)nn3)CC2)nc(N2CCN(C(=O)CCCCCCCCCCNC(=O)[C@H]([C@@H](C)CC)n3cc(CCCCN=C(N)N)nn3)CC2)n1 [MLS002153718]
18 | > 20 µM | C#CCOCCOCCOCCNc1nc(N2CCN(C(=O)CCCCCCCCCCNC(=O)[C@@H](CCSC)n3cc(CCO)nn3)CC2)nc(N2CCN(C(=O)CCCCCCCCCCNC(=O)[C@H](CCC(=O)O)n3cc(CCCCCN)nn3)CC2)n1 [MLS002153730]
19 | > 20 µM | C#CCOCCOCCOCCNc1nc(N2CCN(C(=O)CCCCCCCCCCNC(=O)[C@@H](CCSC)n3cc(CCO)nn3)CC2)nc(N2CCN(C(=O)CCCCCCCCCCNC(=O)[C@H](CO)n3cc(CCCCCN)nn3)CC2)n1 [MLS002153734]

Row | IC50 | SMILES
20 | > 20 µM | C#CCOCCOCCOCCNc1nc(N2CCN(C(=O)[C@H](CCCN=C(N)N)n3cc(C(N)[C@H](C)CC)nn3)CC2)nc(N2CCN(C(=O)[C@H](CCCN=C(N)N)n3cc(C(N)[C@@H](C)CC)nn3)CC2)n1 (stereo partly drawn) [MLS002473475]
21 | 17 µM | COc1ccc2nc(C)cc(N=NCc3ccc(F)cc3)c2c1 [N-[(4-fluorophenyl)methylideneamino]-6-methoxy-2-methyl-4-quinolinamine]
22 | 8.52 µM | C#CCOCCOCCOCCNc1nc(N2CCN(C(=O)CCCCCCCCCCNC(=O)[C@H]([C@@H](C)CC)n3cc(CCCCN=C(N)N)nn3)CC2)nc(N2CCN(C(=O)CCCCCCCCCCNC(=O)[C@H](CCCCN)n3cc(C)nn3)CC2)n1 [RI-GK]
23 | > 20 µM | CC1=CC(C)(C)N2C(=O)/C(=N\NC(N)=S)c3cccc1c32 [SMR000218901]
24 | > 20 µM | CC(C)NC(=S)NNC1=c2cc(C(C)C)ccc2=NC1=O [SMR000242097]
25 | > 20 µM | COc1cc(C2c3c(-c4cccs4)n[nH]c3OC(=N)C2C#N)cc(OC)c1O (stereo not drawn) [SMR000275523]
26 | > 20 µM | CCOc1ccc(-c2csc(NC(=O)c3cccc(-n4c(O)ccc4O)c3)n2)cc1 [SMR000319795]
27 | > 20 µM | C#CCOCCOCCOCCNc1nc(N2CCN(C(=O)[C@H](CCCCN)n3cc([C@@H](N)C(C)CC)nn3)CC2)nc(N2CCN(C(=O)[C@H](Cc3cc4ccccc4[nH]3)n3cc([C@@H](N)CC(C)C)nn3)CC2)n1 (stereo partly drawn) [SMR000391070]
28 | > 20 µM | C#CCOCCOCCOCCNc1nc(N2CCN(C(=O)[C@H](CCCCN)n3cc([C@@H](N)C(C)CC)nn3)CC2)nc(N2CCN(C(=O)[C@H](Cc3ccc(O)cc3)n3cc([C@@H](N)C(C)CC)nn3)CC2)n1 (stereo partly drawn) [SMR000391090]
29 | > 20 µM | C#CCOCCOCCOCCNc1nc(N2CCN(C(=O)[C@H](CCCCN)n3cc([C@@H](N)CC(C)C)nn3)CC2)nc(N2CCN(C(=O)[C@H](Cc3cc4ccccc4[nH]3)n3cc([C@@H](N)Cc4ccc(O)cc4)nn3)CC2)n1 [SMR000391143]
30 | 11.7 µM | C#CCOCCOCCOCCNc1nc(N2CCN(C(=O)[C@H](Cc3cc4ccccc4[nH]3)n3cc([C@@H](N)C(C)CC)nn3)CC2)nc(N2CCN(C(=O)[C@H](Cc3cc4ccccc4[nH]3)n3cc([C@@H](N)Cc4ccc(O)cc4)nn3)CC2)n1 (stereo partly drawn) [SMR000391146]
31 | > 20 µM | CC1CC(C)(C)N2C(=O)/C(=N\NC(N)=S)c3cccc1c32 (stereo not drawn) [SMR000414933]
32 | 3.44 µM | CCN(CC)CCOC(=O)c1ccc(N=CC(C#N)c2nc(-c3ccc(OC)c(OC)c3)cs2)cc1 (stereo not drawn) [SMR000434079]
33 | > 20 µM | C#CCOCCOCCOCCNc1nc(N2CCN(C(=O)C([C@@H](C)CC)n3cc(C(N)COC(=O)C(F)(F)F)nn3)CC2)nc(N2CCN(C(=O)[C@H](CCCCN)n3cc(C(N)CC(C)C)nn3)CC2)n1 (stereo partly drawn) [SMR000453712]
34 | 13.3 µM | C#CCOCCOCCOCCNc1nc(N2CCN(C(=O)CCCCCCCCCCNC(=O)Cn3cc(CCCCCN)nn3)CC2)nc(N2CCN(C(=O)CCCCCCCCCCNC(=O)Cn3cc(CCCCCN)nn3)CC2)n1 [SMR001231146]
35 | 14.2 µM | C#CCOCCOCCOCCNc1nc(N2CCN(C(=O)CCCCCCCCCCNC(=O)[C@H](CO)n3cc(CCCSC)nn3)CC2)nc(N2CCN(C(=O)CCCCCCCCCCNC(=O)[C@H](CCCCN)n3cc(CCO)nn3)CC2)n1 [SMR001318322]
36 | > 20 µM | Cc1cccc2c1C(=NNC(N)=S)C(=O)N2C1OC(CO)C(O)C(O)C1O (stereo not drawn) [The compound has not trivial name.]
37 | > 20 µM | NC(=S)NN=C1C(=O)N(C2OC(=O)c3ccccc32)c2ccccc21 (stereo not drawn) [[(Z)-[2-oxo-1-(3-oxo-1H-isobenzofuran-1-yl)-3-indolylidene]amino]thiourea]

Row | SMILES | IC50
38 | Oc1c(Cc2cnc[nH]2)[nH]c(=S)n1-c1ccccc1 [MLS001163810] | > 20 µM
